Measurements as given in patent US9399626B2, “2-thiopyrimidinones” (Pfizer Inc., priority 2011, dated 2016).
Where a name gives a salt, the structure may show the parent alone.

What follows are compounds tested against T1, MPO (purified from human polynuclear leukocytes) (Homo sapiens, UniProt P05164) (assay: MPO Amplex Red Activity Assay). Settings: Table 1, 2 μM H2O2, pH 7.4.
T1 construct: purified from human polynuclear leukocytes; purchased Calbiochem/EMD Biosciences; host or cells: human polynuclear leukocytes (natural source)
T1 sequence (P05164 279-745 limits assumed): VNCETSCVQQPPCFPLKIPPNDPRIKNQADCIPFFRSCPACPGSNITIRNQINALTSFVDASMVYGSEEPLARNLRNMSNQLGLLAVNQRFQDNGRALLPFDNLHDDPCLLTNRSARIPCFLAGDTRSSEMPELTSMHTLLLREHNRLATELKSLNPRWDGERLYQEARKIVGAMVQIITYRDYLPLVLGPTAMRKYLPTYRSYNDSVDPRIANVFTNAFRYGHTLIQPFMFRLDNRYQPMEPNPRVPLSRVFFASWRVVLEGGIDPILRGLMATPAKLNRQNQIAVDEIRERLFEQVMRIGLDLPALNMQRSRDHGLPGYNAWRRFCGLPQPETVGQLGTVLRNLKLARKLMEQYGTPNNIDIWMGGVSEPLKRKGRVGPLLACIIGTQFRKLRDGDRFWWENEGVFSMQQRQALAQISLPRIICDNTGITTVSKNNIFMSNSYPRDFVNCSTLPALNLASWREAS
T1 sequence (P05164 165-273 limits assumed): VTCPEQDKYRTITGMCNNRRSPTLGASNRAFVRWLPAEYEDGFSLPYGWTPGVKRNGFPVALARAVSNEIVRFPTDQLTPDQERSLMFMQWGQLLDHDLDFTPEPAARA
Type: biochemical
In short: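 Potency is given as kinact/KI: kobs values from 600 s progress curves, minus the uninhibited rate, are fit against inhibitor concentration. Reactions use 2 μM H2O2, 30 μM Amplex Red, pH 7.4 phosphate buffer with NaCl, DTPA and 2% DMSO, started with […] human MPO. Readout is resorufin fluorescence, catalase background subtracted.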
With `COc1nc2ccccc2cc1-c1cc(=O)[nH]c(=S)n1CCN` [Example 97, 1-(2-aminoethyl)-6-(2-methoxyquinolin-3-yl)-2-thioxo-2,3-dihydropyrimidin-4(1H)-one trifluoroacetate] the “MPO kinact/Ki” value was 6310 1/s per M. With `NCCCn1c(-c2ccccc2-n2nccn2)cc(=O)[nH]c1=S` [Example 98, 1-(3-aminopropyl)-2-thioxo-6-[2-(2H-1,2,3-triazol-2-yl)phenyl]-2,3-dihydropyrimidin-4(1H)-one hydrochloride] the “MPO kinact/Ki” value was 1870 1/s per M. With `NC(=O)Cn1c(-c2ccccc2-n2nccn2)cc(=O)[nH]c1=S` [Example 99, 2-{4-oxo-2-thioxo-6-[2-(2H-1,2,3-triazol-2-yl)phenyl]-3,4-dihydropyrimidin-1(2H)-yl}acetamide] the “MPO kinact/Ki” value was 2920 1/s per M. `COc1cc2ccccc2cc1-c1cc(=O)[nH]c(=S)n1CCO` [Example 100, 1-(2-hydroxyethyl)-6-(3-methoxy-2-naphthyl)-2-thioxo-2,3-dihydropyrimidin-4(1H)-one] was tested, and the “MPO kinact/Ki” value was 16100 1/s per M. In the case of `COCCn1c(-c2ccccc2-n2nccn2)cc(=O)[nH]c1=S` [Example 101, 1-(2-methoxyethyl)-2-thioxo-6-[2-(2H-1,2,3-triazol-2-yl)phenyl]-2,3-dihydropyrimidin-4(1H)-one], the “MPO kinact/Ki” value is reported as 4140 1/s per M. With `CCOc1ccccc1-c1cc(=O)[nH]c(=S)n1CC1CCCO1` (centres unmarked) [Example 102, 6-(2-ethoxyphenyl)-1-(tetrahydrofuran-2-ylmethyl)-2-thioxo-2,3-dihydropyrimidin-4(1H)-one] the “MPO kinact/Ki” value was 4200 1/s per M. For `COc1ccccc1-c1cc(=O)[nH]c(=S)n1CCCN=C(N)N` [Example 103, 2-{3-[6-(2-methoxyphenyl)-4-oxo-2-thioxo-3,4-dihydropyrimidin-1(2H)-yl]propyl} guanidine], the “MPO kinact/Ki” value was 41800 1/s per M. With `CCOc1ccccc1-c1cc(=O)[nH]c(=S)n1CCOC(C)C` [Example 104, 6-(2-ethoxyphenyl)-1-(2-isopropoxyethyl)-2-thioxo-2,3-dihydropyrimidin-4(1H)-one] the “MPO kinact/Ki” value was 1210 1/s per M. `COc1cc(OC)c(-c2cc(=O)[nH]c(=S)n2CCCN)cc1C` [Example 105, 1-(3-aminopropyl)-6-(2,4-dimethoxy-5-methylphenyl)-2-thioxo-2,3-dihydropyrimidin-4(1H)-one hydrochloride] was tested, and the “MPO kinact/Ki” value was 27300 1/s per M. For `COc1cc(-c2cc(=O)[nH]c(=S)n2CCCN)c(OC)cc1C` [Example 106, 1-(3-aminopropyl)-6-(2,5-dimethoxy-4-methylphenyl)-2-thioxo-2,3-dihydropyrimidin-4(1H)-one hydrochloride], the “MPO kinact/Ki” value was 10500 1/s per M. For `COc1cc(OC)c(-c2cc(=O)[nH]c(=S)n2CC(N)=O)cc1F` [Example 107, 2-[6-(5-fluoro-2,4-dimethoxyphenyl)-4-oxo-2-thioxo-3,4-dihydropyrimidin-1(2H)-yl]acetamide], the “MPO kinact/Ki” value was 1280 1/s per M. With `COc1cc(OC)c(-c2cc(=O)[nH]c(=S)n2CCCN)cc1F` [Example 108, 1-(3-aminopropyl)-6-(5-fluoro-2,4-dimethoxyphenyl)-2-thioxo-2,3-dihydropyrimidin-4(1H)-one hydrochloride] the “MPO kinact/Ki” value was 5800 1/s per M. For `COCCn1c(-c2cccc(S(C)(=O)=O)c2)cc(=O)[nH]c1=S` [Example 109, 1-(2-methoxyethyl)-6-[3-(methylsulfonyl)phenyl]-2-thioxo-2,3-dihydropyrimidin-4(1H)-one], the “MPO kinact/Ki” value was 914 1/s per M. With `COCCn1c(-c2ccc(S(C)(=O)=O)cc2)cc(=O)[nH]c1=S` [Example 110, 1-(2-methoxyethyl)-6-[4-(methylsulfonyl)phenyl]-2-thioxo-2,3-dihydropyrimidin-4(1H)-one] the “MPO kinact/Ki” value was 864 1/s per M. `COc1cc(OC)c(-c2cc(=O)[nH]c(=S)n2CCN)cc1Cl` [Example 111, 1-(2-aminoethyl)-6-(5-chloro-2,4-dimethoxyphenyl)-2-thioxo-2,3-dihydropyrimidin-4(1H)-one hydrochloride] was tested, and the “MPO kinact/Ki” value was 10300 1/s per M. `COc1cc2ccccc2cc1-c1cc(=O)[nH]c(=S)n1CC(N)=O` [Example 112, 2-[6-(3-methoxy-2-naphthyl)-4-oxo-2-thioxo-3,4-dihydropyrimidin-1(2H)-yl]acetamide] was tested, and the “MPO kinact/Ki” value was 14900 1/s per M. With `COc1ccc(Cl)cc1-c1cc(=O)[nH]c(=S)n1C[C@@H](O)CN` [Example 113, 1-[(2S)-3-amino-2-hydroxypropyl]-6-(5-chloro-2-methoxyphenyl)-2-thioxo-2,3-dihydropyrimidin-4(1H)-one trifluoroacetate] the “MPO kinact/Ki” value was 25900 1/s per M. In the case of `COc1ccc(Cl)cc1-c1cc(=O)[nH]c(=S)n1C[C@H](O)CN` [Example 114, 1-[(2R)-3-amino-2-hydroxypropyl]-6-(5-chloro-2-methoxyphenyl)-2-thioxo-2,3-dihydropyrimidin-4(1H)-one trifluoroacetate], the “MPO kinact/Ki” value is reported as 9770 1/s per M. In the case of `COCCn1c(-c2ccc3ccccc3c2OC)cc(=O)[nH]c1=S` [Example 115, 1-(2-methoxyethyl)-6-(1-methoxy-2-naphthyl)-2-thioxo-2,3-dihydropyrimidin-4(1H)-one], the “MPO kinact/Ki” value is reported as 4380 1/s per M. With `COc1ccc(Cl)cc1-c1cc(=O)[nH]c(=S)n1C[C@@H](O)CO` [Example 116, 6-(5-chloro-2-methoxyphenyl)-1-[(2R)-2,3-dihydroxypropyl]-2-thioxo-2,3-dihydropyrimidin-4(1H)-one] the “MPO kinact/Ki” value was 9920 1/s per M. For `COCCn1c(-c2cc3ccccc3cc2OC)cc(=O)[nH]c1=S` [Example 117, 1-(2-methoxyethyl)-6-(3-methoxy-2-naphthyl)-2-thioxo-2,3-dihydropyrimidin-4(1H)-one], the “MPO kinact/Ki” value was 11400 1/s per M. In the case of `COCCn1c(-c2ccccc2OC(F)(F)F)cc(=O)[nH]c1=S` [Example 118, 1-(2-methoxyethyl)-2-thioxo-6-[2-(trifluoromethoxy)phenyl]-2,3-dihydropyrimidin-4(1H)-one], the “MPO kinact/Ki” value is reported as 5500 1/s per M. In the case of `COc1ccc(C)cc1-c1cc(=O)[nH]c(=S)n1CCCN=C(N)N` [Example 119, 2-{3-[6-(2-methoxy-5-methylphenyl)-4-oxo-2-thioxo-3,4-dihydropyrimidin-1(2H)-yl]propyl} guanidine], the “MPO kinact/Ki” value is reported as 25600 1/s per M. `COc1ccc(C)cc1-c1cc(=O)[nH]c(=S)n1CCNC(=O)CN` [Example 120, N-{2-[6-(2-methoxy-5-methylphenyl)-4-oxo-2-thioxo-3,4-dihydropyrimidin-1(2H)-yl]ethyl} glycinamide hydrochloride] was tested, and the “MPO kinact/Ki” value was 9720 1/s per M. In the case of `COc1ccc(OC)c(-c2cc(=O)[nH]c(=S)n2CCN=C(N)N)c1` [Example 121, 2-{2-[6-(2,5-dimethoxyphenyl)-4-oxo-2-thioxo-3,4-dihydropyrimidin-1(2H)-yl]ethyl}guanidine hydrochloride], the “MPO kinact/Ki” value is reported as 15800 1/s per M. `COc1ccc(Cl)cc1-c1cc(=O)[nH]c(=S)n1C[C@H]1CCCN1` [Example 122, 6-(5-chloro-2-methoxyphenyl)-1-[(2R)-pyrrolidin-2-ylmethyl]-2-thioxo-2,3-dihydropyrimidin-4(1H)-one hydrochloride] was tested, and the “MPO kinact/Ki” value was 9310 1/s per M. `COc1ccc(Cl)cc1-c1cc(=O)[nH]c(=S)n1C[C@@H]1CCCN1` [Example 123, 6-(5-chloro-2-methoxyphenyl)-1-[(2S)-pyrrolidin-2-ylmethyl]-2-thioxo-2,3-dihydropyrimidin-4(1H)-one hydrochloride] was tested, and the “MPO kinact/Ki” value was 3780 1/s per M. With `COc1cc(OC)c(-c2cc(=O)[nH]c(=S)n2CC(N)=O)cc1OC` [Example 124, 2-[4-oxo-2-thioxo-6-(2,4,5-trimethoxyphenyl)-3,4-dihydropyrimidin-1(2H)-yl]acetamide] the “MPO kinact/Ki” value was 4610 1/s per M. In the case of `COc1cc(OC)c(-c2cc(=O)[nH]c(=S)n2CCCN)cc1OC` [Example 125, 1-(3-aminopropyl)-2-thioxo-6-(2,4,5-trimethoxyphenyl)-2,3-dihydropyrimidin-4(1H)-one hydrochloride], the “MPO kinact/Ki” value is reported as 10600 1/s per M. `COc1ccc(F)cc1-c1cc(=O)[nH]c(=S)n1CCCN=C(N)N` [Example 126, 2-{3-[6-(5-fluoro-2-methoxyphenyl)-4-oxo-2-thioxo-3,4-dihydropyrimidin-1(2H)-yl]propyl} guanidine] was tested, and the “MPO kinact/Ki” value was 18200 1/s per M. With `COc1ccc(F)cc1-c1cc(=O)[nH]c(=S)n1CCNC(=O)CN` [Example 127, N-{2-[6-(5-fluoro-2-methoxyphenyl)-4-oxo-2-thioxo-3,4-dihydropyrimidin-1(2H)-yl]ethyl} glycinamide hydrochloride] the “MPO kinact/Ki” value was 5810 1/s per M. In the case of `COc1ccc(Cl)cc1-c1cc(=O)[nH]c(=S)n1CCN=C(N)N` [Example 128, 2-{2-[6-(5-chloro-2-methoxyphenyl)-4-oxo-2-thioxo-3,4-dihydropyrimidin-1(2H)-yl]ethyl} guanidine hydrochloride], the “MPO kinact/Ki” value is reported as 7680 1/s per M. In the case of `COc1cc(OC)c(-c2cc(=O)[nH]c(=S)n2CCCN)cc1Cl` [Example 129, 1-(3-aminopropyl)-6-(5-chloro-2,4-dimethoxyphenyl)-2-thioxo-2,3-dihydropyrimidin-4(1H)-one hydrochloride], the “MPO kinact/Ki” value is reported as 18700 1/s per M. With `N=C(N)NCCn1c(-c2ccccc2-n2nccn2)cc(=O)[nH]c1=S` [Example 130, 1-(2-{4-oxo-2-thioxo-6-[2-(2H-1,2,3-triazol-2-yl)phenyl]-3,4-dihydropyrimidin-1(2H)-yl}ethyl)guanidine hydrochloride] the “MPO kinact/Ki” value was 4830 1/s per M. `COc1ccc(OC)c(-c2cc(=O)[nH]c(=S)n2CCCN=C(N)N)c1` [Example 131, 2-{3-[6-(2,5-dimethoxyphenyl)-4-oxo-2-thioxo-3,4-dihydropyrimidin-1(2H)-yl]propyl} guanidine trifluoroacetate] was tested, and the “MPO kinact/Ki” value was 14500 1/s per M.
